Data published in patent US8785457B2 (Cellzome Limited, priority 2009, dated 2014).

Tests used:
[1] = test system: Salmonella typhimurium strain TA100; test: Ames plate assay, TA100
Procedure: (§1) Certain compounds of the invention were tested for their potential to induce gene mutations in bacterial strains of Salmonella typhimurium (strains TA1535, TA1537, TA98, TA100) and Escherichia coli (strain WP2uvrA(pKM101)) in a bacterial mutation assay in the absence and presence of metabolite activation (rat S9-mix). Compounds are tested at the following dose levels: 50, 150, 500, or 1500 μg/plate.
(§2) Vehicle control treatment is the vehicle used to prepare the test compound formulation diluted to the same extent as the test compound solution. Positive controls using known mutagens are included for each strain with and without rat S9 mix. Four plates are used for the vehicle control and two replicate plates per dose per strain for the treated groups and for each positive control. At the end of incubation the number of revertant colonies per plate are recorded and mean values calculated for each vehicle control, positive control and concentration of test compound used. Results are also expressed as a ratio of the mean values to the mean concurrent vehicle control value (i.e. fold increase).

[2] = test system: Salmonella typhimurium strain TA1535; test: Ames plate assay, TA1535
Procedure: as §1, §2

[3] = test system: Akt serine-473 phosphorylation; test: In vitro Phospho-Akt cellular assay (pAkt S473) in HEK293T/17 cells; assay type: cell-based; conditions: Homo sapiens, 2 hours
Text: Activation of mTOR signaling results in phosphorylation of several downstream targets. In cells, mTOR exists in two different protein complexes. The mTOR Complex-1 (mTORC1) phosphorylates and activates S6 Kinase 1 (S6K1) and S6 Kinase 2 (S6K2) (also known as p70S6K) which then phosphorylate S6 Ribosomal Protein (S6RP) (also known as RPS6)3. S6RP is phosphorylated on serine 235, serine 236, serine 240 and serine 244 by both pS6K1 and pS6K2. The mTOR Complex-2 (mTORC2) phosphorylates AKT on serine 473 which activates the AKT signaling pathway.
The assay measures a test compound's inhibition of S6RP serine-240/244 phosphorylation and inhibition of Akt serine-473 phosphorylation in human embryonic kidney derived HEK293T/17 cells (ATCC CRL-11268).
The HEK293T/17 cell line is maintained in DMEM media (Invitrogen catalogue number 41965-039) supplemented with 10% FCS at 37° C. in a 5% CO2 humidified incubator.
Cells are seeded in 96-well plates at 40,000 cells/well (pS6RP S240/244 assay) or 80,000 cells/well (pAkt S473 assay) in 90 μl growth media (DMEM, 2% FCS). Plates are incubated for 1 hour in a humidified incubator to allow the cells to adhere. Cells are treated with 8 concentrations of test compounds or DMSO alone for controls (final DMSO concentration 0.1%) and incubated at 37° C. for 2 hours. Then 20 μl of 5× concentrated lysis buffer (750 mM NaCl, 100 mM Tris pH7.4, 5 mM ADTA, 5 mM EGTA, 5% Triton X-100) is added, plates are sealed and incubated for 15 minutes at 4° C. with gentle shaking. After cell lysis, 25 μl cell lysate is transferred to a MesoScale plate coated with an antibody to pS6RP Ser240/244 (MesoScale Discovery K150DGD-3) or an antibody to pAkt Ser 473 (MesoScale Discovery K151DGD-3). Plates have been blocked before by incubation with 150 μl MesoScale Discovery Blocking Solution-A for 1 hour at room temperature followed by washing with 150 μl 1× Tris wash buffer per well. After the transfer of the cell lysate to the MSD plate, the pS6RP (or pAkt) protein is captured on the coated antibody by incubation at room temperature for 1 hour with gentle shaking. After the capture step the plate is washed three times with 150 μl of 1× Tris wash buffer per well. Then 25 μl detection antibody conjugated with a Sulfo-Tag is added and incubated for 1 hour at room temperature with gentle shaking. Subsequently the antibody solution is removed and the plate is washed 3 times with 150 μl×Tris wash buffer per well and 150 μl Read buffer is added. The plates are analysed on a MSD 2400 Plate Reader (MesoScale Discovery). Data analysis is performed using nonlinear regression for a sigmoidal dose-response with a variable slope.

[4] = test system: S6RP serine-240/244 phosphorylation; test: In vitro Phospho-S6 cellular assay (pS6RP S240/244) in HEK293T/17 cells; assay type: cell-based; conditions: Homo sapiens, 2 hours, read-out: pS6 IC50
Procedure, shortened: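 Compounds were tested at eight concentrations on adhered HEK293T/17 cells for 2 h at 37 °C (2% FCS, 0.1% DMSO), at 80,000 cells/well for pAkt S473 and 40,000 for pS6RP S240/244. Lysates were captured on phospho-specific antibody MSD plates with Sulfo-Tag detection. Values came from nonlinear variable-slope regression.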

[5] = test system: Escherichia coli strain WP2uvrA(pKM101); test: Ames plate assay, WP2uvrA(pKM101)
Procedure: as §1, §2

[6] = test system: Salmonella typhimurium strain TA98; test: Ames plate assay, TA98
Procedure: as §1, §2

[7] = test system: Salmonella typhimurium strain TA1537; test: Ames plate assay, TA1537
Procedure: as §1, §2

Which “Ames plate assay TA100 +S9” value ([1]; TA100, +S9, 50 μg/Plate) does the source give for `CCOC(=O)N1Cc2nc(-c3ccc(NC(=O)NC4CC4)cc3)nc(N3CCOC[C@@H]3C)c2C1` [Example 34, (S)-ethyl 2-(4-(3-cyclopropylureido)phenyl)-4-(3-methylmorpholino)-5H-pyrrolo[3,4-d]pyrimidine-6(7H)-carboxylate] here?
Its value is “−”.

What about the “Ames plate assay TA100 +S9” value ([1]; TA100, +S9, 150 μg/Plate) of the same compound?
Its value is “−”.

What about the “Ames plate assay TA100 +S9” value ([1]; TA100, +S9, 500 μg/Plate) of the same compound?
Its value is “−”.

And the “Ames plate assay TA100 +S9” value ([1]; TA100, +S9, 1500 μg/Plate)?
Its value is “−”.

And the “Ames plate assay TA100 −S9” value ([1]; TA100, −S9, 50 μg/Plate)?
The value was “−”.

What about the “Ames plate assay TA100 −S9” value ([1]; TA100, −S9, 150 μg/Plate) of the same compound?
The value was “−”.

What about the “Ames plate assay TA100 −S9” value ([1]; TA100, −S9, 500 μg/Plate) of the same compound?
The value was “−”.

And the “Ames plate assay TA100 −S9” value ([1]; TA100, −S9, 1500 μg/Plate)?
The value was “−”.

What about the “Ames plate assay TA1535 +S9” value ([2]; TA1535, +S9, 50 μg/Plate) of the same compound?
Its value is “−”.

What about the “Ames plate assay TA1535 +S9” value ([2]; TA1535, +S9, 150 μg/Plate) of the same compound?
The value was “−”.

And the “Ames plate assay TA1535 +S9” value ([2]; TA1535, +S9, 500 μg/Plate)?
The value was “−”.

What about the “Ames plate assay TA1535 +S9” value ([2]; TA1535, +S9, 1500 μg/Plate) of the same compound?
The value was “−”.

And the “Ames plate assay TA1535 −S9” value ([2]; TA1535, −S9, 50 μg/Plate)?
Its value is “−”.

And the “Ames plate assay TA1535 −S9” value ([2]; TA1535, −S9, 150 μg/Plate)?
The value was “−”.

And the “Ames plate assay TA1535 −S9” value ([2]; TA1535, −S9, 500 μg/Plate)?
The value was “−”.

And the “Ames plate assay TA1535 −S9” value ([2]; TA1535, −S9, 1500 μg/Plate)?
Its value is “−”.

What about the IC50 [3] of the same compound?
Its IC50 is 21 nM.

And the IC50 [4]?
Its IC50 is 49 nM.

And the “Ames plate assay WP2uvrA (pKM101) +S9” value ([5]; +S9, 50 μg/Plate)?
Its value is “−”.

And the “Ames plate assay WP2uvrA (pKM101) +S9” value ([5]; +S9, 150 μg/Plate)?
The value was “−”.

And the “Ames plate assay WP2uvrA (pKM101) +S9” value ([5]; +S9, 500 μg/Plate)?
Its value is “−”.

What about the “Ames plate assay WP2uvrA (pKM101) +S9” value ([5]; +S9, 1500 μg/Plate) of the same compound?
Its value is “−”.

And the “Ames plate assay WP2uvrA (pKM101) −S9” value ([5]; −S9, 50 μg/Plate)?
The value was “−”.

And the “Ames plate assay WP2uvrA (pKM101) −S9” value ([5]; −S9, 150 μg/Plate)?
Its value is “−”.

And the “Ames plate assay WP2uvrA (pKM101) −S9” value ([5]; −S9, 500 μg/Plate)?
Its value is “−”.

And the “Ames plate assay WP2uvrA (pKM101) −S9” value ([5]; −S9, 1500 μg/Plate)?
The value was “−”.

What about the “Ames plate assay TA98 +S9” value ([6]; TA98, +S9, 50 μg/Plate) of the same compound?
Its value is “−”.

And the “Ames plate assay TA98 +S9” value ([6]; TA98, +S9, 150 μg/Plate)?
Its value is “−”.

And the “Ames plate assay TA98 +S9” value ([6]; TA98, +S9, 500 μg/Plate)?
Its value is “−”.

What about the “Ames plate assay TA98 +S9” value ([6]; TA98, +S9, 1500 μg/Plate) of the same compound?
The value was “−”.

And the “Ames plate assay TA98 −S9” value ([6]; TA98, −S9, 50 μg/Plate)?
Its value is “−”.

What about the “Ames plate assay TA98 −S9” value ([6]; TA98, −S9, 150 μg/Plate) of the same compound?
The value was “−”.

And the “Ames plate assay TA98 −S9” value ([6]; TA98, −S9, 500 μg/Plate)?
The value was “−”.

And the “Ames plate assay TA98 −S9” value ([6]; TA98, −S9, 1500 μg/Plate)?
Its value is “−”.

What about the “Ames plate assay TA1537 +S9” value ([7]; TA1537, +S9, 50 μg/Plate) of the same compound?
The value was “−”.

And the “Ames plate assay TA1537 +S9” value ([7]; TA1537, +S9, 150 μg/Plate)?
Its value is “−”.

What about the “Ames plate assay TA1537 +S9” value ([7]; TA1537, +S9, 500 μg/Plate) of the same compound?
The value was “−”.

And the “Ames plate assay TA1537 +S9” value ([7]; TA1537, +S9, 1500 μg/Plate)?
The value was “−”.

And the “Ames plate assay TA1537 −S9” value ([7]; TA1537, −S9, 50 μg/Plate)?
Its value is “−”.

And the “Ames plate assay TA1537 −S9” value ([7]; TA1537, −S9, 150 μg/Plate)?
Its value is “−”.

And the “Ames plate assay TA1537 −S9” value ([7]; TA1537, −S9, 500 μg/Plate)?
Its value is “−”.

What about the “Ames plate assay TA1537 −S9” value ([7]; TA1537, −S9, 1500 μg/Plate) of the same compound?
Its value is “−”.

With `CCNC(=O)Nc1ccc(-c2nc3c(c(N4CCOC[C@@H]4C)n2)CCN(C)C3)cc1` [Example 35, (S)-1-ethyl-3-(4-(7-methyl-4-(3-methylmorpholino)-5,6,7,8-tetrahydropyrido[3,4-d]pyrimidin-2-yl)phenyl)urea] as the compound, how does the IC50 [3] read?
The IC50 was 14 nM.

And the IC50 [4]?
The IC50 was 37 nM.

Which results are given for `CCNC(=O)Nc1ccc(-c2nc3c(c(N4CCOC[C@@H]4C)n2)CN(C(=O)C(C)(C)C)C3)cc1` [Example 22, (S)-1-ethyl-3-(4-(4-(3-methylmorpholino)-6-pivaloyl-6,7-dihydro-5H-pyrrolo[3,4-d]pyrimidin-2-yl)phenyl)urea]?
IC50 [3]: 29 nM; IC50 [4]: 87 nM

Which results are given for `CCNC(=O)N1Cc2nc(-c3ccc(NC(=O)NC4CC4)cc3)nc(N3CCOC[C@@H]3C)c2C1` [Example 33, (S)-2-(4-(3-cyclopropylureido)phenyl)-N-ethyl-4-(3-methylmorpholino)-5H-pyrrolo[3,4-d]pyrimidine-6(7H)-carboxamide]?
IC50 [3]: 160 nM; IC50 [4]: 379 nM

With `CCNC(=O)Nc1ccc(-c2nc3c(c(N4CCOC[C@@H]4C)n2)CCN(CC)C3)cc1` [Example 27, (S)-1-ethyl-3-(4-(7-ethyl-4-(3-methylmorpholino)-5,6,7,8-tetrahydropyrido[3,4-d]pyrimidin-2-yl)phenyl)urea] as the compound, how does the IC50 [3] read?
Its IC50 is 16 nM.

And the IC50 [4]?
The IC50 was 24 nM.

Which results are given for `CCOC(=O)N1Cc2nc(-c3ccc(NC(=O)NC4CC4)cc3F)nc(N3CCOC[C@H]3C)c2C1` [Example 179, (R)-ethyl 2-(4-(3-cyclopropylureido)-2-fluorophenyl)-4-(3-methylmorpholino)-5H-pyrrolo[3,4-d]pyrimidine-6(7H)-carboxylate]?
IC50 [3]: 31 nM; IC50 [4]: 63 nM
